“And” between values parts separate entries of the source, which are not always exact repeats. Equal values may be shown once.
Experiments:
caspase-3 = assay: Caspase 3 activation assay; assay type: cell-based, human; details: MCF-7 cells; for Caspase–3 Fold Change: versus untreated control
Source text: Compounds 12 and 17 were studied for their effects on caspase-3 levels in MCF-7 (breast cancer cell line) and staurosporine as a reference (503.00 ± 4 pg/mL). […] The aforementioned results imply that caspase-3 overexpression may be a contributing factor in the antiproliferative effects of the investigated compounds. […]
4.2.3. Caspase-3 activation assay
Allow all reagents to reach room temperature before use. Gently mix all liquid reagents prior to use. Determine the number of 8-well strips needed for the assay. Insert these in the frame(s) for current use. Add 100 μl of the Standard Diluent Buffer to the zero standard wells. Well(s) reserved for chromogen blank should be left empty. Add 100 μl of standards and controls or diluted samples to the appropriate microtiter wells. The sample dilution chosen should be optimized for each experimental system. Tap gently on side of plate to mix. Cover wells with plate cover and incubate for 2 hours at room temperature. Thoroughly aspirate or decant solution from wells and discard the liquid, Wash wells 4 times. Pipette 100 μl of Caspase-3 (Active) Detection Antibody solution into each well except the chromogen blank(s). Tap gently on the side of the plate to mix. Cover plate with plate cover and incubate for 1 hour at room temperature. Thoroughly aspirate or decant solution from wells and discard the liquid, Wash wells 4 times. Add 100 μl Anti-Rabbit IgG HRP Working Solution to each well except the chromogen blank(s). Prepare the working dilution as described in Preparing IgG HRP. Cover wells with the plate cover and incubate for 30 minutes at room temperature. Thoroughly aspirate or decant solution from wells and discard the liquid. Wash wells 4 times. Add 100 μl of Stabilized Chromogen to each well. The liquid in the wells will begin to turn blue. Incubate for 30 minutes at room temperature and in the dark. The incubation time for chromogen substrate is often determined by the microtiter plate reader used. Many plate readers have the capacity to record a maximum optical density (O.D.) of 2.0. The O.D. values should be monitored, and the substrate reaction stopped before the O.D. of the positive wells exceeds the limits of the instrument. The O.D. values at 450 nm can only be read after the Stop Solution has been added to each well. If using a reader that records only to 2.0 O.D., stopping the assay after […]
Add 100 μl of Stop Solution to each well. Tap side of plate gently to mix. The solution in the wells should change from blue to yellow. Read the absorbance of each well at 450 nm having blanked the plate reader against a chromogen blank composed of 100 μl each of Stabilized Chromogen and Stop Solution. Read the plate within 2 hours after adding the Stop Solution. Use a curve fitting software to generate the standard curve. A four-parameter algorithm provides the best standard curve fit. Read the concentrations for unknown samples and controls from the standard curve. Multiply value(s) obtained for sample(s) by the appropriate dilution factor to correct for the dilution in step 3. Samples producing signals greater than that of the highest standard should be diluted in Standard Diluent Buffer and reanalyzed. […]

Bax = Bax level assay; assay type: cell-based, human; details: MCF-7 cells; for Bax Fold Change: versus untreated control
Description: Additionally, the effects of compounds 12 and 17 on the levels of caspase-8, Bax, and Bacl-2 in the MCF-7 cancer cell line and staurosporine as a control were examined. […]
Cells were obtained from American Type Culture Collection, cells were grown in RPMI 1640 containing 10% fetal bovine serum at 37°C, stimulated with the compounds to be tested for caspase8, and lysed with Cell Extraction Buffer. This lysate was diluted in Standard Diluent Buffer over the range of the assay and measured for human active caspase-8 content. […]
4.2.5. Bax activation assay
Bring all reagents, except the human Bax-α Standard, to room temperature for at least 30 minutes prior to opening. The human Bax-α Standard solution should not be left at room temperature for more than 10 minutes. All standards, controls and samples should be run in duplicate. Refer to the Assay Layout Sheet to determine the number of wells to be used and put any remaining wells with the desiccant back into the pouch and seal the ziploc. Store unused wells at 4 °C. Pipet 100 μL of Assay Buffer into the S0 (0 pg/mL standard) wells. Pipet 100 μL of Standards #1 through #6 into the appropriate wells. Pipet 100 μL of the Samples into the appropriate wells. Tap the plate gently to mix the contents. Seal the plate and incubate at room temperature on a plate shaker for 1 hour at ~500 rpm. Empty the contents of the wells and wash by adding 400 μL of wash solution to every well. Repeat the wash 4 more times for a total of 5 washes. After the final wash, empty or aspirate the wells and firmly tap the plate on a lint free paper towel to remove any remaining wash buffer. Pipet 100 μL of yellow Antibody into each well, except the Blank. Seal the plate and incubate at room temperature on a plate shaker for 1 hour at ~500 rpm. Empty the contents of the wells and wash by adding 400 μL of wash solution to every well. Repeat the wash 4 more times for a total of 5 washes. After the final wash, empty or aspirate the wells and firmly tap the plate on a lint free paper towel to remove any remaining wash buffer. Add 100 μL of blue Conjugate to each well, except the Blank. Seal the plate and incubate at room temperature on a plate shaker for 30 minutes at ~500 rpm. Empty the contents of the wells and wash by adding 400 μL of wash solution to every well. Repeat the wash 4 more times for a total of 5 washes. After the final wash, empty or aspirate the wells and firmly tap the plate on a lint free paper towel to remove any remaining wash buffer. Pipet 100 μL of Substrate Solution into each well. Incubate for 30 minutes at room temperature on a plate shaker at ~500 rpm. Pipet 100 μL Stop Solution to each well. Blank the plate reader against the Blank wells, read the optical density at 450 nm. Calculate the average net Optical Density (OD) bound for each standard and sample by subtracting the average Blank OD from the average OD for each standard and sample.
Using linear graph paper, plot the Average Net OD for each standard versus Bax concentration in each standard. Approximate a straight line through the points. The concentration of Bax in the unknowns can be determined by interpolation. […]
Cover with a plate cover and incubate at room temperature, on a microplate shaker at 100 rpm if available, for 2 hours. Remove plate cover and empty the wells.
Wash microwell strips 3 times as described in step 2. Add 100 μL of diluted Streptavidin-HRP to all wells, including the blank wells. Cover with a plate cover and incubate at room temperature, on a microplate shaker at 100 rpm if available, for 1 hour. Remove plate cover and empty the wells.
Wash microwell strips 3 times as described in step 2. Proceed to the next step. Pipette 100 μl of mixed TMB Substrate Solution to all wells, including the blanks. Incubate the microwell strips at room temperature (18° to 25°C) for about 15 minutes, if available on a rotator set at 100 rpm.
Avoid direct exposure to intense light. […]

Compound	Caspase–3 Conc (caspase-3)	Caspase–3 Fold Change (caspase-3)	Bax Conc (Bax) [pg/mL]	Bax Fold Change (Bax)
COc1ccc(C2CC(c3ccc(OCC(=O)Nc4ccc(C5=NNC(c6ccc(OC)c(OC)c6)C5)cc4)cc3)=NN2)cc1 (stereo not drawn) [Compound 12, 2-(4-(5-(4-Methoxyphenyl)-4,5-dihydro-1H-pyrazol-3-yl)phenoxy)-N-(4-(5-(3,4-dimethoxyphenyl)-4,5-dihydro-1H-pyrazol-3-yl)phenyl)acetamide]	543.50 ± 4 pg/mL	8.5	296	37
COc1ccc(C2CC(c3ccc(NC(=O)COc4ccc(C5=NNC(c6ccc(OC)c(OC)c6)C5)cc4)cc3)=NN2)cc1 (stereo not drawn) [Compound 17, 2-(4-(5-(3,4-Dimethoxyphenyl)-4,5-dihydro-1H-pyrazol-3-yl)phenoxy)-N-(4-(5-(4-methoxyphenyl)-4,5-dihydro-1H-pyrazol-3-yl)phenyl)acetamide]	469.50 ± 5 pg/mL and 469.50 ± 4 pg/mL	7.2	285	35
CN[C@@H]1C[C@H]2O[C@@](C)([C@@H]1OC)n1c3ccccc3c3c4c(c5c6ccccc6n2c5c31)C(=O)NC4 [Staurosporine, reference compound]	503.00 ± 4 pg/mL	8.0	280	35
